We go through four compounds from US12661362B2, “Methods for the prevention and treatment of hearing loss” (Ting Therapeutics LLC, priority 2020, dated 2026).

Data set [1] deals with FVB/NJ mice. The data set is described as follows: Safety monitoring of drugs IP in FVB/NJ mice, with or without Cisplatin. It is filed as in vivo, mouse. Conditions: for weight loss, pain and distress: Niclosamide 10, Ingenol 0.3, Elesclomol 5 mg/kg/day IP, 4 consecutive days. As for the experimental part: To investigate the drugs' effects on mammalian auditory function in vivo, we first treated 5-7 weeks old FVB/NJ mice with […] drug candidates: Niclosamide (10 mg/kg/day), Ingenol (0.3 mg/kg/day), Elesclomol (5 mg/kg/day), for 4 consecutive days (IP) to monitor safety of the drugs. All tested doses were determined based on previous published data showing maximum non-toxic dose through intraperitoneal (IP) injection.
Baseline auditory brainstem response (ABR) were measured on 16 mice divided in 3 groups receiving Ingenol, Elesclomol, and Niclosamide. The mice received the drug doses described above, then on day 2 of drug injection mice also received 30 mg/kg Cisplatin (IP; 4 mice per group).

The conditions of data set [2]: chemotherapy; cited from earlier work.
Data set [3] deals with HEI-OC1 cells. As to the kind of experiment: Caspase-Glo 3/7 assay in HEI-OC1 cells treated with Cisplatin. The data set is classed as cell-based, mouse. The settings on record: Cisplatin 50 μM; for caspase activity: at a dosage of ~40 μM. As for the experimental part:
Now referring to FIG. 3A, and FIGS. 3D-3E, compounds protect from cisplatin toxicity in the mouse inner ear cell line. House Ear Institute-Organ of Corti 1 (HEI-OC1) cells (House Research Institute) were maintained in high-glucose Dulbecco's modified Eagle medium supplemented with 10% fetal bovine serum (Life Technologies, USA) at 33° C. and 10% CO2 as previously described (Kalinec et al., 2003). Cells were seeded at 8,000 cells/well in 96 well plates and left to attach overnight. Now referring to FIG. 3A, For the drug screening, HEI-OC1 cells were pretreated with 30 drug candidates at concentrations ranging from 2 nM to 40 μM one hour before receiving cisplatin. The cisplatin dose (50 μM) was based on our previously published dose response curve. The cells were co-incubated with cisplatin and drug candidates for an additional 19 hours prior to Caspase-Glo 3/7 assay (Promega, Madison, WI) as previously shown. Additionally, […] kenpaullone-treated cells were used as positive controls to validate our results. The DMSO concentration in drug preparation was adjusted to 0.1% v/v and it was verified that 0.5% DMSO had no effect on the cell death kinetics (Hall et al., 2014). Results of the assay were run in triplicate and normalized to cisplatin-only and media-only controls. The percent caspase activity was used to determine the relative protective effect of each compound. The luminescence detection representing caspase activity in each well was obtained using a Cytation Hybrid Multi-Mode Reader (Biotek, Winooski, VT, USA). The percent protection of the cells was calculated using caspase 3/7 readouts and the following formula: […]
In the following examples, Niclosamide, 5-chloro-N-(2-chloro-4-nitrophenyl)-2-hydroxy-benzamide, with a ≥95% purity was used for all experiments (Cayman Chemical, USA).

Data set [4] concerns zebrafish neuromast HCs. As to the kind of experiment: Niclosamide/ezetimibe combination hair cell protection in Cisplatin-treated zebrafish (Loewe synergy). The data set is classed as in vivo. Conditions: 1.48 μM, cisplatin 300 μM. On the procedure: Now referring to FIGS. 6A-6B, 5 dpf zebrafish were either incubated with vehicle (DMSO), cisplatin alone at 300 μM concentration, cisplatin and ezetimibe (0.002 μM to 13.3 μM), cisplatin and niclosamide (0.02 nM to 18.3 nM), or cisplatin and combination ezetimibe/niclosamide. After 6 hours, animals were transferred to fresh water for 1 hour and then sacrificed and processed for immunohistochemistry and HC count as described above. To further elucidate whether Niclosamide, synergizes with Nrf2 activators to protect zebrafish HCs from Cisplatin damage, we tested the extent of HC damage in presence of Niclosamide and a Nrf2 activator, ezetimibe.
A three-dimensional contour plot (A) showing dose response of neuromast hair cell protection in zebrafish treated with varying concentrations of niclosamide and ezetimibe mapped to synergy distribution. […] Other dose combinations showing synergy are shown in dark blue boxes. Dose combinations with scores of 0 and 1 show additive effect. *P<5×10−2; **P<10−3, ***P<10−4 versus control fish, One-sample t-test run by the Combenefit software44. Data is shown as mean±standard deviation.
Zebrafish were treated with combinations of Niclosamide (ranging from 0.02-18.3 nM) and EZ (ranging from 0.0183-13.3 μM).

In data set [5] the test system is zebrafish neuromast HCs. As to the kind of experiment: Zebrafish lateral-line neuromast hair cell protection against Cisplatin. The settings on record: doses of 0.002, 0.0183, 0.165 and 1.48 μM; Cisplatin 4 hours. It is filed as in vivo, Danio rerio. As for the experimental part: Danio rerio experimental larvae were obtained by pair mating of adult fish maintained at Creighton University by standard methods approved by the Institutional Animal Care and Use Committee. […] We used Tg(pou4f3:mGFP) expressing a membrane bound GFP in HCs. Experimental fish were maintained at 28.5° C. in E3 media (5 mM NaCl, 0.17 mM KCl, 0.33 mM CaCl2) and […], pH 7.2). Animals were cryoanaesthetized after drug treatment and prior to fixation. The neuromasts inspected, S03 and 01-2, were part of the cranial system and included the otic, middle, and opercular neuromasts.
Subsequently, animals were transferred to E3 water for 5 hours and fixed in 4% paraformaldehyde (PFA) overnight (26). Neuromast HCs were immunolabeled with anti-otoferlin (HCS-1, DSHB) and anti-GFP (NB100-1614, Novus Biologicals). These two markers were used to detect and count neuromast HCs to reduce the chances of missing some of the HCs after the treatment since we previously noticed that incubation with the compounds can affect GFP expression more difficult to detect under a fluorescence microscope. Otic, middle, and opercular neuromasts were identified, and HCs at S03 (supraorbital line neuromast) and 01-2 (Otic line neuromasts) were manually counted using a Zeiss AxioSkop 2 fluorescence microscope with a 40× oil objective. Compounds were then evaluated on efficiency and potency, with the top-rated compounds showing high protection at lower concentrations.

Take `N.N.[Cl][Pt][Cl]` [Cisplatin]: in data set [1] (Cisplatin alone, 30 mg/kg IP), the weight loss is 10-15%. In data set [2], the “treated cancer patients with permanent hearing loss” value is 40-60%.
On to `CN(NC(=O)CC(=O)NN(C)C(=S)c1ccccc1)C(=S)c1ccccc1` [Elesclomol], for which the caspase activity in data set [3] was determined as 20%. Also, in data set [3] (dose of 40 μM), the “caspase-3/7 activity relative to control cells” value is given as “reduce caspase activity to comparable levels as control cells”. Besides, the “weight loss, pain and distress” value in data set [1] was “None of the mice showed reduced weight loss or signs of pain and distress”.
Turning to `O=C1[C@H](CC[C@H](O)c2ccc(F)cc2)[C@@H](c2ccc(O)cc2)N1c1ccc(F)cc1` [Ezetimibe], the “HC per neuromast counts, compound alone” value in data set [4] is reported as “higher HC per neuromast counts”.
For the compound `CC1=C[C@]23C(=O)[C@@H](C=C(CO)[C@@H](O)[C@]2(O)[C@H]1O)[C@H]1[C@@H](C[C@H]3C)C1(C)C` [Ingenol], the IC50 in data set [3] (Mus musculus, HEI-OC1, HEI-OC1 cells, read-out: calculated IC50 (percent protection from caspase 3/7 readout)) was 1540 nM. The compound further showed a caspase activity in data set [3] of 30%. The “protection against CIHL in zebrafish” value in data set [5] was “showed protection against CIHL”. In addition, the “weight loss, pain and distress” value in data set [1] was “None of the mice showed reduced weight loss or signs of pain and distress”.
